In ChEMBL document CHEMBL3507680, “University of Dundee, Gates Library screen for HepG2 cell viability” one finds cytotoxicity data, which are given here for 103 compounds.

This data set is described as follows: Human HepG2 cell viability assay in 384 well format. The settings on record: HepG2 cells, read-out: Inhibition. It is filed as toxicity, cell-based. Set-up: dose 125 nL, time 70.5 hour; concentration not given beside the values.

Structures are written as SMILES.

Turning to `N#CCCN(CC1CC1)S(=O)(=O)c1cccc(Cl)c1`, the cytotoxicity at 70.5 h is -3.31%.

In the case of `O=C(CCNC(=O)C1=Cc2ccccc2OC1)Nc1cccnc1`, the cytotoxicity at 70.5 h was -6.01%.

`N#CCCN(CC1CCOC1)S(=O)(=O)c1cccc(Cl)c1` (stereo not drawn): the cytotoxicity at 70.5 h is -5.98%.

Consider `Cc1noc(C)c1NC(=O)CCn1cc(Br)ccc1=O`, for which the cytotoxicity at 70.5 h was -8.23%.

For `Cc1ccc(F)c2c1N(C(=O)Cc1c(C)nn(C)c1C)CCC2`, the cytotoxicity at 70.5 h is -8.9%.

`COc1nc(N2CCC(CC(N)=O)CC2)ncc1Br`: the cytotoxicity at 70.5 h is -8.58%.

With `COc1ccc(CCNc2cc(-c3nc(C)no3)ccn2)cc1OC`, the cytotoxicity at 70.5 h is -3.44%.

For the compound `CNC(=O)Cc1noc(-c2cc3c(s2)CCC(C)C3)n1` (stereo not drawn), the cytotoxicity at 70.5 h is -3.99%.

Regarding `CC1CCC(N2CCC(NS(=O)(=O)CCCF)CC2)CC1` (stereo not drawn), the cytotoxicity at 70.5 h stood at 7.59%.

`CNC(=O)Cc1noc(-c2cc3c(s2)CCC(C)(C)C3)n1`: the cytotoxicity at 70.5 h was -3.09%.

In the case of `CC(C)CCC(=O)N1CCN(c2ncnc3nc(N)ccc23)CC1`, the cytotoxicity at 70.5 h is -6.9%.

Turning to `Cc1ccc(C(=O)N2CCN(c3ncnc4nc(N)ccc34)CC2)o1`, the cytotoxicity at 70.5 h was -7.65%.

In the case of `CC(C)CCN1CCN(c2ncnc3nc(N)ccc23)CC1`, the cytotoxicity at 70.5 h was -2.35%.

`Cc1noc(C)c1NC(=O)Cn1cc(Br)ccc1=O`: the cytotoxicity at 70.5 h is 0.532%.

Regarding `Cc1ccc(C(=O)N2CCN(c3ncnc4nc(N)ccc34)CC2)cc1`, the cytotoxicity at 70.5 h was determined as 20.2%.

Turning to `CC(C)OCCC1CCCCN1S(=O)(=O)c1cnn(C)c1` (stereo not drawn), the cytotoxicity at 70.5 h was -4.85%.

With `CC(C)N(C)CCCNC(=O)c1cnn(C(C)(C)C)c1C(F)(F)F`, the cytotoxicity at 70.5 h is -7.79%.

Turning to `Cc1ccc(F)c2c1CCCN2C(=O)Cc1c(C)nn(C)c1C`, the cytotoxicity at 70.5 h was -5.29%.

Consider `COc1cccc(COC(C)C(=O)NCc2nnc3n2CCC3)c1` (stereo not drawn), for which the cytotoxicity at 70.5 h was -1.81%.

Regarding `N#CCCN(CC1CCOC1)S(=O)(=O)c1c(F)cccc1Cl` (stereo not drawn), the cytotoxicity at 70.5 h is -6.61%.

In the case of `CC(C)Cc1noc(CNc2cc3c(cc2Cl)OCCCO3)n1`, the cytotoxicity at 70.5 h was determined as 1.94%.

On to `Cc1ncc(CN2CCC(c3ccnn3C)CC2)n1-c1ccccc1`, for which the cytotoxicity at 70.5 h was determined as 2.82%.

On to `CC1CCCN(S(=O)(=O)NCCCn2ccc3ccccc32)C1` (stereo not drawn), for which the cytotoxicity at 70.5 h is -9.54%.

On to `Cn1nccc1C1CCN(Cc2cnn(-c3ccccc3)n2)CC1`, for which the cytotoxicity at 70.5 h amounted to 20.8%.

With `Cc1noc(C)c1CN1CCN(Cc2nc(C3CC3)no2)CC1`, the cytotoxicity at 70.5 h was -12.8%.

Turning to `Cn1nccc1C1CCN(Cc2ccn(-c3ccccc3)n2)CC1`, the cytotoxicity at 70.5 h is -5.5%.

On to `CCn1cnc2c(c(Br)nn2C)c1=O`, for which the cytotoxicity at 70.5 h is -17.1%.

For `Cc1c(Cl)cccc1OCC(=O)NC1(C#N)CCSC1` (stereo not drawn), the cytotoxicity at 70.5 h was -10.3%.

`Cn1nc(Br)c2c(=O)n(CCc3ccccc3)cnc21`: the cytotoxicity at 70.5 h was -8.29%.

Take `N#CC1(NC(=O)COc2cc(Cl)cc(Cl)c2)CCSC1` (stereo not drawn): the cytotoxicity at 70.5 h was -14.6%.

Turning to `N#CC1(NC(=O)COc2cc(Cl)cc(Cl)c2)CCOCC1`, the cytotoxicity at 70.5 h is -5.72%.

On to `CN1CCN(c2ccc(NCc3ccc(OC(F)(F)F)cc3)cn2)CC1`, for which the cytotoxicity at 70.5 h was -11.2%.

For the compound `CN(C)Cc1nc(C(C)(C)NC(=O)c2ccc3ccccc3c2)no1`, the cytotoxicity at 70.5 h was -6.87%.

With `N#Cc1cc(F)ccc1NCC1CCS(=O)(=O)CC1`, the cytotoxicity at 70.5 h was -1.39%.

Turning to `O=C(CC1CCN(CCN2CCCCC2)CC1)N1CCOCC1`, the cytotoxicity at 70.5 h is -9.66%.

Turning to `Cc1sc(NC(=O)CN2CCCC(c3ncc[nH]3)C2)c(C)c1C` (stereo not drawn), the cytotoxicity at 70.5 h is -14.9%.

As for `O=C(CN1CCCC(c2ncc[nH]2)C1)NCC(F)(F)F` (stereo not drawn), the cytotoxicity at 70.5 h came to 18.7%.

Turning to `COc1ccc(CN(C(=O)C2CCCS2)c2ccncc2)cc1` (stereo not drawn), the cytotoxicity at 70.5 h was -8.12%.

On to `COc1ccc(CN(C(=O)C2CCOCC2)c2ccncc2)cc1`, for which the cytotoxicity at 70.5 h is -10.6%.

Regarding `CC(C)(C)CC1CCCN1Cc1nc(-c2ccco2)no1` (stereo not drawn), the cytotoxicity at 70.5 h stood at 18%.

For the compound `Cn1cnnc1CNC(=O)CCCOc1ccccc1Cl`, the cytotoxicity at 70.5 h was -14.3%.

On to `CN(CCc1nc(-c2cccc(Cl)c2)no1)CCn1cccn1`, for which the cytotoxicity at 70.5 h is -5.46%.

As to `CN(C)Cc1nc(C(C)(C)NC(=O)c2nc3ccccc3s2)no1`, the cytotoxicity at 70.5 h was -7.47%.

For `CNS(=O)(=O)CCCNC(C)(C)c1nc(C)cs1`, the cytotoxicity at 70.5 h is -1.16%.

Consider `COc1ncccc1CNc1snc(Cl)c1C#N`, for which the cytotoxicity at 70.5 h was -103%.

Turning to `O=C(CNc1cc(-n2cnnn2)ccc1F)Nc1cc(F)ccc1F`, the cytotoxicity at 70.5 h was -96.7%.

As for `CNC(=O)Cn1cc(Nc2cccc(F)c2C#N)cn1`, the cytotoxicity at 70.5 h is -32.8%.

Turning to `Cc1nc(-c2ccco2)ccc1C(=O)NCC(=O)N1CCCCC1`, the cytotoxicity at 70.5 h is -117%.

For `Cc1cccc(CSc2nnc(C)n2CC(N)=O)c1`, the cytotoxicity at 70.5 h is -91.2%.

Regarding `COC(=O)C1=NN2C(=NS(=O)(=O)c3ccccc32)N1`, the cytotoxicity at 70.5 h is -89.7%.

As to `COc1cc(CSc2nnc(C)n2CC(N)=O)ccc1SC`, the cytotoxicity at 70.5 h was -118%.

With `O=C(O)c1cc(S(=O)(=O)Nc2cccc3c2OCCO3)c(Cl)cc1F`, the cytotoxicity at 70.5 h was -124%.

With `CCOCCc1nc(-c2cnn3c(C)cc(C)nc23)no1`, the cytotoxicity at 70.5 h is -107%.

As to `CCS(=O)(=O)Cc1nc(-c2cnn3c(C)cc(C)nc23)no1`, the cytotoxicity at 70.5 h is -116%.

As to `COCc1nc(C(=O)OCC2CCN(c3ccccc3)C2)cs1` (stereo not drawn), the cytotoxicity at 70.5 h is -88.7%.

For `NC(=O)C1CN(c2ccc(Br)cn2)CCO1` (stereo not drawn), the cytotoxicity at 70.5 h was -26.8%.

Regarding `Cc1ccc(C(=O)N2CCC3(CCCC3)CC2)c(=O)[nH]1`, the cytotoxicity at 70.5 h is -99.3%.

Consider `O=C(Cc1cccs1)NS(=O)(=O)c1cccc2cnccc12`, for which the cytotoxicity at 70.5 h was -116%.

For `CCS(=O)(=O)N1CCC(Nc2c(Cl)cccc2C#N)CC1`, the cytotoxicity at 70.5 h was -90.6%.

On to `CC(NC(=O)c1cccs1)(C(N)=O)c1cccc(C(F)(F)F)c1` (stereo not drawn), for which the cytotoxicity at 70.5 h was -101%.

With `CCn1c(C)cc(C(=O)N2CCC(Nc3cccnn3)CC2)c1C`, the cytotoxicity at 70.5 h was -108%.

`CN(Cc1ccccc1)C(=O)CCS(=O)(=O)c1ccc2c(c1)OCCO2`: the cytotoxicity at 70.5 h was -62.4%.

With `O=C(NCCC(=O)N1CCCC1)C(OC1CCCC1)c1ccccc1` (stereo not drawn), the cytotoxicity at 70.5 h was determined as 34.3%.

As for `CCN(CCO)C(=O)Nc1ccc(OCCOC)nc1`, the cytotoxicity at 70.5 h came out at 2.78%.

Turning to `CCCn1[nH]cc/c1=N\C(=O)CN1CCC[C@H]1CO`, the cytotoxicity at 70.5 h worked out at 2.76%.

Take `CC(NC(=O)c1cccc(CN2CCN(C)CC2)c1)c1ccccn1` (stereo not drawn): the cytotoxicity at 70.5 h was 0.178%.

Consider `CCOc1ncccc1CNC(=O)c1csc(Br)c1`, for which the cytotoxicity at 70.5 h was -8.48%.

For `CN(C)c1ncccc1CNC(=O)c1csc(Br)c1`, the cytotoxicity at 70.5 h came out at 13.3%.

With `O=C1CCN(C(=O)C2(c3ccc(Br)cc3)CC2)CCN1`, the cytotoxicity at 70.5 h was 1.42%.

For the compound `CC(NC(=O)NCc1cccc(CN2CCCC2)c1)c1nccs1` (stereo not drawn), the cytotoxicity at 70.5 h was -5.42%.

On to `CN(CC(=O)NC(c1ccc(F)cc1)C(F)(F)F)S(C)(=O)=O` (stereo not drawn), for which the cytotoxicity at 70.5 h is -0.794%.

Turning to `CN(Cc1cc(Br)cn1C)C(=O)c1ccsc1`, the cytotoxicity at 70.5 h is -7.08%.

In the case of `COc1ncccc1CNC(=O)c1c[nH]c(=O)c(Br)c1`, the cytotoxicity at 70.5 h is -4.91%.

In the case of `CC1(C)CC1C(=O)NS(=O)(=O)Cc1cc(-c2ccccc2)no1` (stereo not drawn), the cytotoxicity at 70.5 h was -1.85%.

As to `Cc1noc(NCc2ccc(F)cc2F)n1`, the cytotoxicity at 70.5 h was determined as 21.8%.

As for `CN(CCC#N)C(=O)CN1CCCC1c1cccs1` (stereo not drawn), the cytotoxicity at 70.5 h is -4.47%.

Regarding `O=C(NCCN1CCOCC1)C(OC1CCCC1)c1ccccc1` (stereo not drawn), the cytotoxicity at 70.5 h is -3.19%.

On to `CN(Cc1ccco1)C(=O)CN1CCCC1c1cccs1` (stereo not drawn), for which the cytotoxicity at 70.5 h amounted to 24.6%.

Turning to `Cc1nc(CNC2CCc3nc(C(C)C)nn3C2)oc1C` (stereo not drawn), the cytotoxicity at 70.5 h was -4.84%.

Consider `CCc1nnc(C2Cc3ccccc3CN2Cc2cc(C)on2)o1` (stereo not drawn), for which the cytotoxicity at 70.5 h is -2.94%.

For `O=C(Nc1cccs1)N(CCO)CCOCC(F)(F)F`, the cytotoxicity at 70.5 h worked out at 6.76%.

Turning to `CCN(CC)c1ccc(CNC(=O)c2cccc(C)n2)cn1`, the cytotoxicity at 70.5 h turned out to be 11.5%.

Consider `CS(=O)(=O)N1CCC(C(=O)N2CCN(Cc3cccc(Cl)c3)CC2)CC1`, for which the cytotoxicity at 70.5 h was -8.76%.

On to `CC1(C)COCCN1C(=O)Cc1csc(Cc2ccccn2)n1`, for which the cytotoxicity at 70.5 h was -7.18%.

As to `CN1CCC(C(=O)N2CCN(Cc3cccc(Cl)c3)CC2)CC1=O` (stereo not drawn), the cytotoxicity at 70.5 h amounted to 3.2%.

Take `CCN(CC)c1ccc(CNC(=O)c2ccccn2)cn1`: the cytotoxicity at 70.5 h was 10.8%.

Consider `COc1ccccc1CC1CCN(C(=O)CCN2CCOC2=O)CC1`, for which the cytotoxicity at 70.5 h came to 2.48%.

Consider `Cc1ccccc1C1(CNC(=O)N2CCC(CC(N)=O)CC2)CC1`, for which the cytotoxicity at 70.5 h was -4.35%.

As for `O=C(Cc1cccs1)NCc1ccnc(OC2CCOCC2)c1`, the cytotoxicity at 70.5 h was -6.12%.

As to `Cc1c(NC(C)C(C)C)cccc1C(=O)NCc1cnn(C)c1` (stereo not drawn), the cytotoxicity at 70.5 h was -2.68%.

Consider `Cc1ccc(CNC(=O)C2CCN(C(=O)c3ccccc3)CC2)n1C`, for which the cytotoxicity at 70.5 h was -8.06%.

With `NC(=O)N1CCCC1COC(=O)c1cc(F)ccc1F` (stereo not drawn), the cytotoxicity at 70.5 h is -1.3%.

As for `NC(=O)N1CCCC1COC(=O)c1ccc(F)cc1Br` (stereo not drawn), the cytotoxicity at 70.5 h came out at 12.5%.

With `CCOc1cc(F)ccc1NC(=O)N(C(C)CS(C)(=O)=O)C1CC1` (stereo not drawn), the cytotoxicity at 70.5 h was -4.36%.

As for `CC(CS(C)(=O)=O)N(C(=O)Nc1ccc(F)cc1F)C1CC1` (stereo not drawn), the cytotoxicity at 70.5 h was -1.48%.

On to `Cc1noc(-c2cccnc2N2CCOC(C)(c3cnn(C)c3)C2)n1` (stereo not drawn), for which the cytotoxicity at 70.5 h is -6.06%.

As to `CNC(=O)CC1CCN(C(=O)NCC2(c3ccccc3F)CC2)CC1`, the cytotoxicity at 70.5 h is -3.18%.

Consider `COCCOCCCC(=O)N1CCC(Cc2ccccc2OC)CC1`, for which the cytotoxicity at 70.5 h was -10.9%.

Turning to `Cc1nc(C)c(C(=O)N(C)Cc2cnn(C)c2)s1`, the cytotoxicity at 70.5 h is 1.01%.

For the compound `Cc1ccccc1C1CCN(C(=O)CCNS(C)(=O)=O)C1` (stereo not drawn), the cytotoxicity at 70.5 h is 20.6%.

For the compound `COCCNC(=O)c1cc(OC)ccc1Br`, the cytotoxicity at 70.5 h came out at 0.394%.

Consider `Cc1nn(C)c(C)c1CC(=O)NCc1cccnc1N1CCOCC1`, for which the cytotoxicity at 70.5 h is -5.49%.

For the compound `Cc1nn(C)c(Cl)c1C(=O)NCc1cccnc1N1CCOCC1`, the cytotoxicity at 70.5 h is -11.8%.
